According to PubChem BioAssay AID248 (DTP/NCI, 2004):
Where “and” joins values, the source holds several entries; their conditions need not be identical. Equal values may be shown once. Toxic doses and inconclusive results are not listed. Cut-off read from the data, not from the text of the source: active = T/C of 150% or more; inactive = T/C below 125%.

Tested on: L1210 leukemia ip in BDF1 mice, survival T/C
Assay: NCI In Vivo Anticancer Drug Screen. Data for tumor model L1210 Leukemia (intraperitoneal) in B6D2F1 (BDF1) mice
Conditions: endpoint: mean survival time, higher = longer survival
Summary of the method: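 Antitumor effect is assessed in tumor-bearing animals. Survival in the compound arm is compared with a vehicle-dosed control arm and expressed as their quotient.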

[1] = dose: 100.0 mg/kg/injection, schedule: Q01DX001 (ip), vehicle: carboxymethylcellulose (CMC)
[2] = dose: 200.0 mg/kg/injection, schedule: Q01DX001 (ip), vehicle: carboxymethylcellulose (CMC)
[3] = dose: 400.0 mg/kg/injection, schedule: Q01DX001 (ip), vehicle: carboxymethylcellulose (CMC)
[4] = dose: 100.0 mg/kg/injection, schedule: Q01DX009 (ip), vehicle: Klucel (hydroxypropylcellulose) (HPC)
[5] = dose: 200.0 mg/kg/injection, schedule: Q01DX009 (ip), vehicle: Klucel (hydroxypropylcellulose) (HPC)
[6] = dose: 400.0 mg/kg/injection, schedule: Q01DX009 (ip), vehicle: Klucel (hydroxypropylcellulose) (HPC)
[7] = dose: 100.0 mg/kg/injection, schedule: Q01DX001 (ip), vehicle: saline
[8] = dose: 400.0 mg/kg/injection, schedule: Q01DX001 (ip), vehicle: saline
[9] = dose: 100.0 mg/kg/injection, schedule: Q04DX003 (ip), vehicle: Klucel (hydroxypropylcellulose) (HPC)
[10] = dose: 200.0 mg/kg/injection, schedule: Q04DX003 (ip), vehicle: Klucel (hydroxypropylcellulose) (HPC)
[11] = dose: 100.0 mg/kg/injection, schedule: Q04DX003 (ip), vehicle: saline with Tween-80
[12] = dose: 200.0 mg/kg/injection, schedule: Q04DX003 (ip), vehicle: saline with Tween-80
[13] = dose: 400.0 mg/kg/injection, schedule: Q04DX003 (ip), vehicle: saline with Tween-80
[14] = dose: 100.0 mg/kg/injection, schedule: Q01DX001 (ip), vehicle: saline with Tween-80
[15] = dose: 200.0 mg/kg/injection, schedule: Q01DX001 (ip), vehicle: saline with Tween-80
[16] = dose: 100.0 mg/kg/injection, schedule: Q04DX003 (ip), vehicle: saline sonified
[17] = dose: 200.0 mg/kg/injection, schedule: Q04DX003 (ip), vehicle: saline sonified
[18] = dose: 400.0 mg/kg/injection, schedule: Q04DX003 (ip), vehicle: saline sonified
[19] = dose: 50.0 mg/kg/injection, schedule: Q01DX009 (ip), vehicle: Klucel (hydroxypropylcellulose) (HPC)

Measured: T/C

O=c1[nH]cc(O)c(=O)[nH]1
inactive: dose: 50.0 mg/kg/injection, schedule: Q01DX001 (ip), vehicle: carboxymethylcellulose (CMC) 100 % of control | dose: 62.5 mg/kg/injection, schedule: Q#A X018 (ip), vehicle: saline 98 % of control | [1] 102 % of control | dose: 125.0 mg/kg/injection, schedule: Q#A X018 (ip), vehicle: saline 104 % of control | dose: 176.0 mg/kg/injection, schedule: Q01DX Z (ip), vehicle: carboxymethylcellulose (CMC) 107 % of control | [2] 107 % of control | dose: 250.0 mg/kg/injection, schedule: Q#A X018 (ip), vehicle: saline 115 % of control | dose: 267.0 mg/kg/injection, schedule: Q01DX015 (ip), vehicle: saline 115 % of control | dose: 267.0 mg/kg/injection, schedule: Q01DX Z (ip), vehicle: carboxymethylcellulose (CMC) 120 % of control | [3] 100 % of control | dose: 400.0 mg/kg/injection, schedule: Q01DX015 (ip), vehicle: saline 120 % of control | dose: 600.0 mg/kg/injection, schedule: Q01DX015 (ip), vehicle: saline 119 % of control

CCCCC(=O)N(CC)C(=NCC)c1ccc(NC(=O)c2ccc(C(=O)Nc3ccc(C(=NCC)N(CC)C(=O)CCCC)cc3)cc2)cc1
inactive: dose: 25.0 mg/kg/injection, schedule: Q01DX015 (ip), vehicle: methylcellulose (MC) 90 % of control | dose: 50.0 mg/kg/injection, schedule: Q01DX015 (ip), vehicle: methylcellulose (MC) 90 % of control | dose: 100.0 mg/kg/injection, schedule: Q01DX015 (ip), vehicle: methylcellulose (MC) 96 % of control | dose: 200.0 mg/kg/injection, schedule: Q01DX015 (ip), vehicle: methylcellulose (MC) 94 % of control

O=C(c1ccccc1)N1CCN(C(=O)c2ccccc2)C1
inactive: [4] 91 % of control | [5] 98 % of control | [6] 104 % of control

CC(C)(C(N)=O)c1ccccc1
inactive: dose: 50.0 mg/kg/injection, schedule: Q01DX001 (ip), vehicle: saline 106 % of control | [7] 103 % of control | dose: 200.0 mg/kg/injection, schedule: Q01DX001 (ip), vehicle: saline 103 % of control | [8] 100 % of control

Cc1ccc(S(=O)(=O)OCCCCCCCCCCCCCCOS(=O)(=O)c2ccc(C)cc2)cc1
inactive: [4] 97 % of control | [9] 97 % of control | [5] 98 % of control | [10] 96 % of control | [6] 106 % of control | dose: 400.0 mg/kg/injection, schedule: Q04DX003 (ip), vehicle: Klucel (hydroxypropylcellulose) (HPC) 92 % of control

O=c1[nH]nc(S(=O)(=O)c2ccccc2)c(=O)[nH]1
inactive: [1] 95 % of control | [2] 95 % of control | [3] 95 % of control

Cc1cc(C)n(/N=C/c2ccccc2)c(=O)c1C#N
inactive: [1] 91 % of control | [2] 91 % of control | [3] 91 % of control

O=C(Nc1ccccc1F)OC/C=C/c1ccccc1
inactive: [4] 104 % of control | [5] 97 % of control | [6] 95 % of control

Nc1ccc(Nc2ncnc3nc[nH]c23)cc1
inactive: [11] 102 % of control | [12] 98 % of control | [13] 107 % of control

O=C(Cc1ccccc1)c1ccc(N2CCOCC2)cc1
inactive: [7] 89 % of control | [8] 86 % of control

NC(CSS(=O)(=O)O)=NCCSc1ccccc1
inactive: dose: 12.5 mg/kg/injection, schedule: Q04DX002 (ip), vehicle: Klucel (hydroxypropylcellulose) (HPC) 95 % of control | dose: 25.0 mg/kg/injection, schedule: Q04DX002 (ip), vehicle: Klucel (hydroxypropylcellulose) (HPC) 106 % of control | dose: 50.0 mg/kg/injection, schedule: Q04DX002 (ip), vehicle: Klucel (hydroxypropylcellulose) (HPC) 106 % of control

CC1(C)C(=O)C(O)=C[C@@]2(C)C1=CC[C@H]1[C@@H]3CC[C@H](O)[C@@]3(C)CC[C@@H]12
inactive: dose: 100.0 mg/kg/injection, schedule: Q01DX001 (sc), vehicle: steriod suspending solution 97 % of control | dose: 200.0 mg/kg/injection, schedule: Q01DX001 (sc), vehicle: steriod suspending solution 104 % of control | dose: 400.0 mg/kg/injection, schedule: Q01DX001 (sc), vehicle: steriod suspending solution 97 % of control

COC(=O)c1ccc(C(=O)OC)[n+]([O-])c1
inactive: dose: 100.0 mg/kg/injection, schedule: Q01DX009 (ip), vehicle: saline 102 % of control | dose: 100.0 mg/kg/injection, schedule: Q04DX003 (ip), vehicle: saline 103 % of control | dose: 200.0 mg/kg/injection, schedule: Q01DX009 (ip), vehicle: saline 106 % of control | dose: 200.0 mg/kg/injection, schedule: Q04DX003 (ip), vehicle: saline 108 % of control | dose: 266.0 mg/kg/injection, schedule: Q04DX003 (ip), vehicle: saline 93 % of control | dose: 400.0 mg/kg/injection, schedule: Q01DX009 (ip), vehicle: saline 106 % of control | dose: 400.0 mg/kg/injection, schedule: Q04DX003 (ip), vehicle: saline 101 % of control | dose: 600.0 mg/kg/injection, schedule: Q04DX003 (ip), vehicle: saline 90 % of control

O=C(O)C12CCC(CO)(CC1)CC2
inactive: dose: 50.0 mg/kg/injection, schedule: Q01DX001 (ip), vehicle: saline with Tween-80 103 % of control | [14] 100 % of control | [15] 92 % of control

O=C(COc1ccc(Cl)cc1)C1CSc2ccc(Br)cc21 (centres undefined)
inactive: [16] 89 % of control | [17] 101 % of control | [18] 92 % of control

COc1cccc(OC)c1OC(=O)NS(=O)(=O)c1ccc(Cl)cc1
inactive: dose: 100.0 mg/kg/injection, schedule: Q01DX009 (ip), vehicle: saline with Tween-80 116 % of control | [11] 104 % of control | dose: 200.0 mg/kg/injection, schedule: Q01DX009 (ip), vehicle: saline with Tween-80 98 % of control | [12] 97 % of control | dose: 400.0 mg/kg/injection, schedule: Q01DX009 (ip), vehicle: saline with Tween-80 106 % of control | [13] 103 % of control

CCOC(=O)C(c1ccccc1)c1ccccc1
inactive: dose: 100.0 mg/kg/injection, schedule: Q01DX009 (ip), vehicle: other 102 % of control | dose: 200.0 mg/kg/injection, schedule: Q01DX009 (ip), vehicle: other 94 % of control | dose: 400.0 mg/kg/injection, schedule: Q01DX009 (ip), vehicle: other 93 % of control

CCOC(=O)/C(O)=C/c1cnc2ccccc2n1
inactive: [19] 94 % of control | [4] 91 % of control | [5] 94 % of control

O=C(C#Cc1ccccc1)[O][Sn]([c]1ccccc1)([c]1ccccc1)[c]1ccccc1
inactive: dose: 1.56 mg/kg/injection, schedule: Q01DX009 (ip), vehicle: saline 102 % of control | dose: 3.12 mg/kg/injection, schedule: Q01DX009 (ip), vehicle: saline 94 % of control | dose: 6.25 mg/kg/injection, schedule: Q01DX009 (ip), vehicle: saline 96 % of control and 108 % of control

O=Cc1nc2ccccc2c2ccccc12
inactive: [11] 89 % of control | [12] 94 % of control | [13] 103 % of control

COc1ccc(CCN(C)C2c3ccccc3C=Cc3ccccc32)cc1OC
inactive: [14] 103 % of control | [15] 107 % of control | dose: 400.0 mg/kg/injection, schedule: Q01DX001 (ip), vehicle: saline with Tween-80 98 % of control

CCCCC(C(=O)O)c1ccccc1 (centres undefined)
inactive: [16] 100 % of control | [17] 97 % of control | [18] 100 % of control

O=C(N/N=C/c1ccc(N(CCCl)CCCl)cc1)c1ccc(C(=O)N/N=C/c2ccc(N(CCCl)CCCl)cc2)cc1
inactive: [19] 98 % of control | [4] 90 % of control | [9] 95 % of control | [10] 100 % of control

CC(=O)c1ccccc1O.CO.CO.[Cl][Nb][Cl]
inactive: dose: 75.0 mg/kg/injection, schedule: Q01DX001 (ip), vehicle: saline 93 % of control | dose: 150.0 mg/kg/injection, schedule: Q01DX001 (ip), vehicle: saline 90 % of control | dose: 300.0 mg/kg/injection, schedule: Q01DX001 (ip), vehicle: saline 90 % of control
